Measurements: patent US20030180285A1, “Treatment of fungal infections with polyene or beta glucan synthase inhibitor anti-fungals combined with anti hsp90 antibodies” (priority 2000, published 2003)
Converted amounts (≈) assume the structure as drawn. Where two headings read alike, the source gives them in different places.

How the values were obtained:
[1] = tested on: Candida albicans (outbreak); test: Broth microdilution test (MIC, colony counts); assay type: cell-based
Experimental: (§1) Non-Aspergillus yeast strains used (Table 1) were plated onto Sabouraud's dextrose agar (Oxoid, Basingstoke, UK) and incubated at 37° C. for 24 hours. The strains were identified with the API 20C system (BioMerieux, Marcy L'Etoile, France). If needed, microscopical examinations of morphology on cornmeal agar (Oxoid) was used to confirm the identity.
(§2) For non-Aspergillus strains, suspensions were prepared from individual colonies (diameter≧1 mm) in 5 ml of sterile 0.85% saline to a density of […] as established by counting on a haemocytometer grid. For Aspergillus strains, see below.
(§3) RPMI broth was prepared from RPMI 1640 broth medium (Sigma R7880) supplemented with 0.3 g of glutamine per litre, buffered with 34.6 g of morpholine propanesulfonic acid (MOPS) per litre and adjusted to ph 7.0.
(§4) Twofold dilutions ([…] for amphotericin B and 400 to 0.4 mg/ml for fluconazole) were prepared in RPMI broth starting from the two stock solutions. A 100 μl suspension of the inoculum diluted 1 in 10 (equivalent to 1×10^3 cfu) was added to the microtiter plates. To this was added 50 μl of the antifungal and then 50 μl of the antibody. Antibody was either neat (0.4 mg/mil), or diluted to 1/10or 1/100. When antibody was absent, the 50 μl volume was made up by RPMI. The total volume in each well was 200 μl. Final concentrations of antibody in the experiments were: 100 μg/ml (“neat”), 10 μg/ml (“ 1/10antibody”) or 1 μg/ml (“ 1/100antibody”).
(§5) Plates were incubated at 37° C. overnight and the minimum inhibitory concentration (MIC) defined by the lower concentration inhibiting growth.
(§6) Colony counts were determined for the wells where there was a visual reduction in yeast growth. Results were represented as colony forming units per ml of broth (cfu/ml).

[2] = tested on: Torulopsis glabrata (NCPF #3240); test: Broth microdilution test (MIC, colony counts); assay type: cell-based; conditions: T. glabrata; for MIC: Nakaseomyces glabratus, NCPF3240
Experimental: as §1, §2, §3, §4, §5, §6

C. krusei (FA/157) = test: Broth microdilution test (MIC, colony counts); assay type: cell-based; conditions: for MIC: Pichia kudriavzevii; for MIC / Colony counts: no antibody
Experimental: as §1, §2, §3, §4, §5, §6

[3] = tested on: C. parapsilosis (NCPF #3104); test: Broth microdilution test (MIC, colony counts); assay type: cell-based; conditions: for MIC: Lodderomyces parapsilosis, NCPF3104, no antibody; for Colony counts: no antibody
Experimental: as §1, §2, §3, §4, §5, §6

[4] = tested on: C. tropicalis (NCPF #3111); test: Broth microdilution test (MIC, colony counts); assay type: cell-based; conditions: for MIC: Candida tropicalis, NCPF3111, no antibody
Experimental: as §1, §2, §3, §4, §5, §6

[5] = tested on: Aspergillus fumigatus (NCPF #2109); test: Aspergillus studies, MIC in microtitre plates; assay type: cell-based; conditions: NCPF2109, formulation buffer only, read-out: MIC to Amphotericin B
Experimental: (§7) Isolates of Aspergillus fumigatus, Aspergillus flavus and Aspergillus niger were prepared in RPMI 1640 medium. The suspensions were prepared to give a final inoculum of 2×10^4 conidia per ml and these were dispensed in 100 μl aliquots into flat-bottomed microtitre plates. A double dilution series of Amphotericin B ranging from 250 μg/nil to 0.75 μg/ml was prepared and dispensed to the appropriate wells. Mycograb was added to each of the wells at a final concentration of 100 μg/ml in formulation buffer. A control series was also prepared for each isolate which contained formulation buffer only.

[6] = tested on: C. albicans outbreak strain; test: Animal synergy: yeast counts in tissues of infected mice; assay type: in vivo, CD1 mice; conditions: Group 1: amphotericin B 0.6 mg/kg only, 48 hours
Experimental: Thirty CD1 mice (each weighing about 25 g) were injected with 100 μl of C. albicans outbreak strain (equivalent to 1.5×10^7 cfu) and after 2 hours the mice were split into three groups and injected with:
(A) Group 1—100 μl solution of 10 mM ammonium acetate (AAT; pH 9), followed by 100 μl amphotericin B equivalent to 0.6 mg/kg in a 5% (w/v) glucose solution;
(B) Group 2—100 μl solution of 10 mM AAT (pH 9) solution containing 500 μg anti-hsp90 antibody, followed by 100 μl amphotericin B equivalent to 0.6 mg/kg in a 5% (w/v) glucose solution; and
(C) Group 3—100 μl solution of 10 mM AAT (pH 9) containing 50 μg anti-hsp90 antibody, followed by 100 μl amphotericin B equivalent to 0.6 mg/kg in a 5% (w/v) glucose solution.
The animals were culled after 48 hours and yeast counts on Sabouraud's plates of liver, spleen and kidney tissue performed.

Aspergillus niger = test: Aspergillus studies, MIC in microtitre plates; assay type: cell-based; conditions: formulation buffer only, read-out: MIC to Amphotericin B
Experimental: as §7

Aspergillus flavus = test: Aspergillus studies, MIC in microtitre plates; assay type: cell-based; conditions: formulation buffer only, read-out: MIC to Amphotericin B
Experimental: as §7

[7] = tested on: C. albicans (Fluconazole resistant); test: Broth microdilution test (MIC, colony counts); assay type: cell-based, Candida albicans
Experimental: as §1, §2, §3
Twofold dilutions ([…] for amphotericin B and 400 to 0.4 mg/ml for fluconazole) were prepared in RPMI broth starting from the two stock solutions. A 100 μl suspension of the inoculum diluted 1 in 10 (equivalent to 1×10^3 cfu) was added to the microtiter plates. To this was added 50 μl of the antifungal and then 50 μl of the antibody. Antibody was either neat (0.4 mg/mil), or diluted to 1/10or 1/100. When antibody was absent, the 50 μl volume was made up by RPMI. […]
Colony counts were determined for the wells where there was a visual reduction in yeast growth. […]

[8] = read-out: MIC to amphotericin B
[9] = antibody 0.313 μg/ml, no antifungal agent

For `C[C@@H]1[C@H](O)[C@@H](C)/C=C/C=C/C=C/C=C/C=C/C=C/C=C/[C@H](O[C@@H]2O[C@H](C)[C@@H](O)[C@H](N)[C@@H]2O)C[C@@H]2O[C@](O)(C[C@@H](O)C[C@@H](O)[C@H](O)CC[C@@H](O)C[C@@H](O)CC(=O)O[C@H]1C)C[C@H](O)[C@H]2C(=O)O` [Amphotericin B, amphotericin B], the MIC ([1]; Candida albicans, C. albicans (outbreak), no antibody, read-out: MIC to amphotericin B) was 0.156 µg/mL (≈ 0.169 µM), the MIC ([2]; no antibody, read-out: MIC to amphotericin B) was 0.039 µg/mL (≈ 0.0422 µM) and the Colony counts ([2]; amphotericin B 0.009 μg/ml, no antibody) was 1.1 × 10^7 cfu/ml. For the same molecule, the MIC (C. krusei (FA/157); [8]) was 0.625 µg/mL (≈ 0.676 µM), the MIC [3, 8] was 0.625 µg/mL (≈ 0.676 µM) and the Colony counts ([3]; amphotericin B 0.313 μg/ml) was 3 × 10^6 cfu/ml. The Colony counts ([3]; amphotericin B 0.626 μg/ml) was 6.3 × 10^3 cfu/ml, the MIC [4, 8] was 0.078 µg/mL (≈ 0.0844 µM) and the MIC [5] was 2.5 µg/mL (≈ 2.71 µM). For the same molecule, the “Colonies of C. albicans in tissue” value ([6]; Kidney) was 6.80 ± 0.916 cfu/ml, in log10, the “Colonies of C. albicans in tissue” value ([6]; Liver) was 4.26 ± 1.42 cfu/ml, in log10 and the “Colonies of C. albicans in tissue” value ([6]; Spleen) was 4.18 ± 1.18 cfu/ml, in log10. For the same molecule, the MIC (Aspergillus niger) was 2.5 µg/mL (≈ 2.71 µM), the MIC (Aspergillus flavus) was 2.5 µg/mL (≈ 2.71 µM) and the MIC ([7]; Candida albicans, C. albicans fluconazole resistant, no antibody, read-out: MIC to amphotericin B) was 0.312 µg/mL (≈ 0.338 µM).

`OC(Cn1cncn1)(Cn1cncn1)c1ccc(F)cc1F` [Fluconazole, fluconazole] was tested, and the Colony counts ([1]; C. albicans outbreak strain, fluconazole 0.09 μg/ml, no antibody) was 3.6 × 10^5 cfu/ml, the MIC ([2]; no antibody, read-out: MIC to fluconazole) was 1.56 µg/mL (≈ 5.09 µM) and the MIC (C. krusei (FA/157); read-out: MIC to fluconazole) was 100 µg/mL (≈ 327 µM). The Colony counts (C. krusei (FA/157); fluconazole 25 μg/ml) was 3.2 × 10^7 cfu/ml, the Colony counts (C. krusei (FA/157); fluconazole 50 μg/ml) was 1.6 × 10^7 cfu/ml and the MIC ([3]; read-out: MIC to fluconazole) was 6.25 µg/mL (≈ 20.4 µM). The Colony counts ([3]; fluconazole 3.13 μg/ml) was 2.6 × 10^6 cfu/ml, the MIC ([4]; read-out: MIC to fluconazole) was 3.12 µg/mL (≈ 10.2 µM) and the Colony counts ([4]; fluconazole 0.09 μg/ml, no antibody) was 5 × 10^5 cfu/ml.

B1: antibody: antibody of SEQ ID NO: 2 (heavy, light and spacer domains) recognising Candida albicans hsp90 epitope SEQ ID NO: 1, expressed in E. coli (protein)
scFv: HMAEVQLVESGAEVKKPGESLRISCKGSGCIISSYWISWVRQMPGKGLEWMGKIDPGDSYINYSPSFQGHVTISADKSINTAYLQWNSLKASDTAMYYCARGGRDFGDSFDYWGQGTLVTVSSGGGGSGGGGSGGGGSDVVMTQSPSFLSAFVGDRITITCRASSGISRYLAWYQQAPGKAPKLLIYAASTLQTGVPSRFSGSGSGTEFTLTINSLQPEDFATYYCQHLNSYPLTFGGGTKVDIKRAA
For B1, the “Effect of antibody on its own against yeast growth” value (“Effect of antibody on its own” below) ([1]; C. albicans (outbreak), antibody 0.313 μg/ml, no antifungal agent) was 5.6 × 10^6 cfu/ml, the “Effect of antibody on its own” value [2, 9] was 1.2 × 10^7 cfu/ml and the “Effect of antibody on its own” value (C. krusei (FA/157); [9]) was 1.6 × 10^6 cfu/ml. The “Effect of antibody on its own” value [3, 9] was 2.6 × 10^4 cfu/ml, the “Effect of antibody on its own” value [4, 9] was 6.0 × 10^5 cfu/ml and the “Effect of antibody on its own” value ([7]; C. albicans (fluconazole resistant), antibody 0.313 μg/ml, no antifungal agent) was 6 × 10^6 cfu/ml.
